Values quoted from earlier work, collected in patent US9446009B2, “Methods for treating conditions of the nail unit” (Hallux, Inc., priority 2004, dated 2016).
≈ marks a conversion by molar mass, not a printed value.

Columns and labels:
Conditions in all cases: in vitro
[1] = system: Trichophyton mentagrophytes
[2] = system: Trichophyton rubrum
[3] = system: Trichophyton tonsurans
[4] = system: Trichophyton verrucosum

Row | SMILES | MIC Ranges [1] | MIC Ranges [2] | MIC Ranges [3] | MIC Ranges [4] [µg/mL]
1 | c1ccc(-c2ccc(C(c3ccccc3)n3ccnc3)cc2)cc1 (centres unmarked) [Bifonazole] | 0.125 to 0.25 µg/mL | <0.016 to 1 µg/mL | ≦0.016-0.5 mcg/ml | 8 (≈ 25.8 µM)
2 | OC(Cn1cncn1)(Cn1cncn1)c1ccc(F)cc1F [Fluconazole] | 16 to 32 µg/mL | – | 0.25 to 8 µg/mL | 16 (≈ 52.2 µM)
3 | COC1=CC(=O)C[C@@H](C)[C@]12Oc1c(Cl)c(OC)cc(OC)c1C2=O [Griseofulvin] | 0.016 to 0.125 µg/mL | 0.016 to 8 µg/mL | 0.5 to 1 µg/mL | 1 (≈ 2.83 µM)
4 | CN(C/C=C/C#CC(C)(C)C)Cc1cccc2ccccc12 [Terbinafine] | ≦S0.001 mcg/ml | ≦0.0001-1 ^ mcg/ml | ≦0.001-0.008 mcg/ml | 1 (≈ 3.43 µM)

The remaining lines, values ahead:

Row | MIC Ranges [1] | MIC Ranges [2] | MIC Ranges [3] | MIC Ranges [4] [µg/mL] | SMILES
5 | 0.5 to 1 µg/mL | <0.03 to 8 µg/mL | 0.125 to 1 µg/mL | 4 (≈ 19.3 µM) | Cc1cc(C2CCCCC2)n(O)c(=O)c1 [Ciclopiroxolamine]
6 | 0.008 to 4 µg/mL | – | 0.016 to 0.125 µg/mL | 4 (≈ 7.53 µM) | CC(=O)N1CCN(c2ccc(OCC3COC(Cn4ccnc4)(c4ccc(Cl)cc4Cl)O3)cc2)CC1 (centres unmarked) [Ketoconazole]
7 | 1 µg/mL (≈ 2.4 µM) | 0.008 to 4 µg/mL | 0.016 to 0.25 µg/mL | 4 (≈ 9.61 µM) | Clc1ccc(COC(Cn2ccnc2)c2ccc(Cl)cc2Cl)c(Cl)c1 (centres unmarked) [Miconazole]
